Values after ≈ are worked out from the molar mass of the structure shown.
Key:
[1] = test system: Human immunodeficiency virus 1; assay: Antiviral activity against HIV1 G9106 infected in human MT2 cells; assay type: functional, organism-based; conditions: Human immunodeficiency virus 1, G9106, MT2
[2] = test system: CEM-SS; assay: Cytotoxicity against human CEM-SS cells; assay type: cell-based
[3] = test system: Human immunodeficiency virus 1; assay: Antiviral activity against HIV1 OC100 infected in human CEM-SS cells; assay type: functional, organism-based; conditions: Human immunodeficiency virus 1, CEM-SS
[4] = test system: Human immunodeficiency virus 1; assay: Antiviral activity against HIV1 A17 infected in human MT2 cells; assay type: functional, organism-based; conditions: Human immunodeficiency virus 1, A17, MT2
[5] = test system: Human immunodeficiency virus 1; assay: Antiviral activity against HIV1 RF infected in human CEM-SS cells; assay type: functional, organism-based; conditions: Human immunodeficiency virus 1, RF
[6] = test system: Plasmodium falciparum; assay: Antimalarial activity against Plasmodium falciparum; assay type: functional, organism-based

Row | EC50 [1] | EC50 [3] | EC50 [4] | EC50 [5] | IC50 [6] | SMILES | IC50 [2]
1 | 8 µM | 9 µM | 11 µM | 2 µM | – | COc1cc(O)c(-c2cc(-c3cc(-c4c(O)cc(O)c5c4C[C@@H](C)N[C@@H]5C)c4cc(C)cc(OC)c4c3O)c(O)c3c(OC)cc(C)cc23)c2c1C(C)=N[C@H](C)C2 [MICHELLAMINE F] | 188 µM
2 | 19 µM | 23 µM | 18 µM | 6 µM | – | COc1cc(C)cc2c(-c3c(O)cc(O)c4c3C[C@@H](C)N[C@@H]4C)cc(-c3cc(-c4c(O)cc(O)c5c4C[C@@H](C)N[C@@H]5C)c4cc(C)cc(OC)c4c3O)c(O)c12 [MICHELLAMINE A] | –
3 | 11 µM | 20 µM | 10 µM | 3 µM | – | COc1cc(O)c(-c2cc(-c3cc(-c4c(O)cc(O)c5c4C[C@@H](C)N[C@@H]5C)c4cc(C)cc(OC)c4c3O)c(O)c3c(OC)cc(C)cc23)c2c1[C@@H](C)N[C@H](C)C2 [MICHELLAMINE D] | 17 µM
4 | 15 µM | 11 µM | 13 µM | 4 µM | – | COc1cc(C)cc2c(-c3c(O)cc(O)c4c3C[C@H](C)N(C)[C@@H]4C)cc(-c3cc(-c4c(O)cc(O)c5c4C[C@@H](C)N[C@@H]5C)c4cc(C)cc(OC)c4c3O)c(O)c12 [MICHELLAMINE E] | 23 µM
5 | – | – | – | – | 2 mg/L (≈ 5.08 µM) | COc1cc(O)c(-c2ccc(OC)c3c(O)cc(C)cc23)c2c1[C@@H](C)N[C@H](C)C2 [KORUPENSAMINE E] | –
